Read-outs that look alike come from different tables or passages of the source.
Columns and labels:
Assay type in all cases: cell-based
[1] = tested on: HIV-1 IN mutant S230R; test: single-round infectivity assay, S230R IN mutant
Procedure: (§1) Figure 5 Antiviral potencies of the new compounds against IN with mutations in the […]. The EC50 values were determined using a vector that carries the IN mutant in a single round infection assay. […] Error bars represent the standard deviations of independent experiments, n = 4, performed in triplicate.
(§2) WT and mutant HIV-1 viral vectors were used in single-round infectivity assays to determine the antiviral potencies (EC50 values) of the compounds and the effects of the mutants on the EC50 values as previously described.[30],[54] Single round infectivity measurements were determined as done previously.[38]
(§3) The vector pNLNgoMIVR-ΔENV.LUC has been described previously.[26] To produce the new IN mutants used in this study, the IN open reading frame was removed from pNLNgoMIVR-ΔENV.LUC by digestion with KpnI and SalI, and the resulting fragment was inserted between the KpnI and SalI sites of pBluescript KS+. Using that construct as the wild-type template, we prepared the following HIV-1 IN mutants using the QuikChange II XL site directed mutagenesis kit (Agilent Technologies, Santa Clara, CA) protocol: N117A, N117H, P142A, P142H, P142S, Y143C, Y143H, S230R, R231G, and R231K. The following sense oligonucleotides were used with matching cognate antisense oligonucleotides (not shown) (Integrated DNA Technologies, Coralville, IA) in the mutagenesis: N117A, 5′-[…]-3′; N117H, 5′-[…]-3′; P142A, 5′-[…]-3′; P142H, 5′-[…]-3′; P142S, 5′-[…]-3′; Y143C, 5′- […]-3′; Y143H, 5′-[…]-3′; S230R, 5′- […]-3′; R231G, 5′-[…]-3′; R231K, 5′-[…]-3′.

[2] = tested on: HIV-1 IN mutant N117H; test: single-round infectivity assay, N117H IN mutant
Procedure: (§4) The EC50 values were determined using a vector that carries the IN mutant in a single round infection assay. […] Error bars represent the standard deviations of independent experiments, n = 4, performed in triplicate.
as §2, §3

[3] = tested on: HIV-1 IN mutant R231G; test: single-round infectivity assay, R231G IN mutant
Procedure: as §1, §2, §3

[4] = tested on: HIV-1 IN mutant P142A; test: single-round infectivity assay, P142A IN mutant
Procedure: (§5) Figure 4 Mutations in the β5-α3 loop affect the antiviral potencies of the new compounds. The EC50 values were determined using a vector that carries the IN mutant in a single round infection assay. […] Error bars represent the standard deviations of independent experiments, n = 4, performed in triplicate.
as §2, §3

[5] = tested on: HIV-1 IN mutant S119R; test: single-round infectivity assay, S119R IN mutant
Procedure: as §4, §2, §3

[6] = tested on: HIV-1 IN mutant G118R; test: single-round infectivity assay, G118R IN mutant
Procedure: as §4, §2, §3

[7] = tested on: HIV-1 IN mutant N117A; test: single-round infectivity assay, N117A IN mutant
Procedure: as §4, §2, §3

[8] = tested on: HIV-1 IN mutant N155H; test: single-round infectivity assay, N155H IN mutant
Procedure: (§6) Figure 2 Antiviral activities of the new compounds against RAL-resistant mutants. The EC50 values were determined using a vector that carries WT HIV-1 IN and the RAL-resistant mutants in a single round infection assay. […] Error bars represent the standard deviations of independent experiments, n = 4, performed in triplicate. The graph has a maximum value of 550 nM.
as §2, §3

[9] = tested on: HIV-1 IN mutant Y143H; test: single-round infectivity assay, Y143H IN mutant
Procedure: as §5, §2, §3

[10] = tested on: HIV-1 IN mutant P142H; test: single-round infectivity assay, P142H IN mutant
Procedure: as §4
Single round infectivity measurements were determined as done previously.[38]
as §3

[11] = tested on: HIV-1 IN mutant Y143R; test: single-round infectivity assay, Y143R IN mutant
Procedure: as §6, §2, §3

[12] = tested on: HIV-1 IN mutant R231K; test: single-round infectivity assay, R231K IN mutant
Procedure: as §1, §2, §3

[13] = tested on: WT HIV-1; test: single-round infectivity assay, WT HIV-1 IN vector; conditions: new compounds
Procedure: as §6, §2, §3

[14] = tested on: HIV-1 IN mutant P142S; test: single-round infectivity assay, P142S IN mutant
Procedure: as §5, §2, §3

[15] = tested on: HIV-1 IN double mutant G140S/Q148H; test: single-round infectivity assay, G140S/Q148H IN double mutant
Procedure: as §6, §2, §3

[16] = tested on: HIV-1 IN mutant Y143C; test: single-round infectivity assay, Y143C IN mutant
Procedure: as §5, §2, §3

[17] = fold change in EC50, IN mutant versus WT HIV-1

With Nc1c(C(=O)NCc2ccc(F)cc2F)c(=O)n(O)c2ncc(CCS(=O)(=O)CCN3CCOCC3)cc12 [6v, 4-Amino-N-(2,4-difluorobenzyl)-1-hydroxy-6-(2-((2-morpholinoethyl)sulfonyl)ethyl)-2-oxo-1,2-dihydro-1,8-naphthyridine-3-carboxamide] the “ratio of the EC50s (our compound relative to DTG) against S230R” value ([1]; EC50 compound / EC50 DTG) was 134.0, the EC50 ([1]; Human immunodeficiency virus 1, read-out: EC50 values S230R) was 616 ± 79.8 nM and the “FC S230R” value [1, 17] was 2.3. The “ratio of the EC50s (our compound relative to DTG) against N117H” value ([2]; EC50 compound / EC50 DTG) was 207.3, the EC50 ([2]; Human immunodeficiency virus 1, read-out: EC50 values N117H) was 497 nM and the “FC N117H” value [2, 17] was 1.9. For the same compound, the “ratio of the EC50s (our compound relative to DTG) against R231G” value ([3]; EC50 compound / EC50 DTG) was 133.8, the EC50 ([3]; Human immunodeficiency virus 1, read-out: EC50 values R231G) was 187 ± 17 nM and the “FC R231G” value [3, 17] was 0.7. The “ratio of the EC50s (our compound relative to DTG) against P142A” value ([4]; EC50 compound / EC50 DTG) was 145.9, the EC50 ([4]; Human immunodeficiency virus 1, read-out: EC50 values P142A) was 365 ± 39.4 nM and the “ratio of the EC50s (our compound relative to DTG) against S119R” value ([5]; EC50 compound / EC50 DTG) was 213.0. For the same compound, the EC50 ([5]; Human immunodeficiency virus 1, read-out: EC50 values S119R) was 490 ± 43.1 nM, the “FC S119R” value [5, 17] was 1.8 and the “ratio of the EC50s (our compound relative to DTG) against G118R” value ([6]; EC50 compound / EC50 DTG) was 88.3. For the same compound, the EC50 ([6]; Human immunodeficiency virus 1, read-out: EC50 values G118R) was 1150 ± 270 nM, the “FC G118R” value [6, 17] was 4.3 and the “ratio of the EC50s (our compound relative to DTG) against N117A” value ([7]; EC50 compound / EC50 DTG) was 319.0. The EC50 ([7]; Human immunodeficiency virus 1, read-out: EC50 values N117A) was 160 nM, the “FC N117A” value [7, 17] was 0.6 and the “ratio of the EC50s (our compound relative to DTG) against N155H” value ([8]; EC50 compound / EC50 DTG) was 38.8. The EC50 ([8]; Human immunodeficiency virus 1, read-out: EC50 values N155H) was 140 ± 4.9 nM, the “FC N155H” value [8, 17] was 0.5 and the “ratio of the EC50s (our compound relative to DTG) against Y143H” value ([9]; EC50 compound / EC50 DTG) was 172.0. For the same compound, the EC50 ([9]; Human immunodeficiency virus 1, read-out: EC50 values Y143H, single round infection, n = 4) was 378 ± 38.9 nM, the “FC Y143H” value [9, 17] was 1.4 and the “ratio of the EC50s (our compound relative to DTG) against P142H” value ([10]; EC50 compound / EC50 DTG) was 159.9. For the same compound, the EC50 ([10]; Human immunodeficiency virus 1, read-out: EC50 values P142H) was 448 ± 35.8 nM, the “ratio of the EC50s (our compound relative to DTG) against Y143R” value ([11]; EC50 compound / EC50 DTG) was 25.3 and the EC50 ([11]; Human immunodeficiency virus 1, read-out: EC50 values Y143R) was 109 ± 16.2 nM. The “FC Y143R” value [11, 17] was 0.4, the “ratio of the EC50s (our compound relative to DTG) against R231K” value ([12]; EC50 compound / EC50 DTG) was 97.9 and the EC50 ([12]; Human immunodeficiency virus 1, read-out: EC50 values R231K, single round infection, n = 4) was 411 ± 58 nM. The “FC R231K” value [12, 17] was 1.5, the EC50 ([13]; Human immunodeficiency virus 1, read-out: EC50 values WT, vector carrying WT HIV-1 IN, single round infection, n = 4) was 268 ± 68.8 nM and the EC50 ([13]; read-out: EC50 values WT, vector carrying WT HIV-1 IN, single round infection, n = 4) was > 250 nM. The “ratio of the EC50s (our compound relative to DTG) against P142S” value ([14]; EC50 compound / EC50 DTG) was 156.4, the EC50 ([14]; Human immunodeficiency virus 1, read-out: EC50 values P142S) was 344 ± 26.9 nM and the “ratio of the EC50s (our compound relative to DTG) against G140S/Q148H” value ([15]; EC50 compound / EC50 DTG) was 71.1. For the same compound, the EC50 ([15]; Human immunodeficiency virus 1, read-out: EC50 values G140S/Q148H) was 412 ± 120 nM, the “FC G140S/Q148H” value [15, 17] was 1.5 and the “ratio of the EC50s (our compound relative to DTG) against Y143C” value ([16]; EC50 compound / EC50 DTG) was 308.4. For the same compound, the EC50 ([16]; Human immunodeficiency virus 1, read-out: EC50 values Y143C, single round infection, n = 4) was 432 ± 75.3 nM and the “FC Y143C” value [16, 17] was 1.6.

Reference: article PMC8205226, “HIV-1 Integrase Inhibitors with Modifications That Affect Their Potencies against Drug Resistant Integrase Mutants” (ACS Infectious Diseases, 2021)
